Data from patent publication US5882905A, “Thermostable α-L-arabinofuranosidase from Aureobasidium pullulans” (The United States of America as represented by the …, priority 1997, dated 1999).
Where “and” joins values, the source holds several entries; their conditions need not be identical. Identical values can stand only once. Entries after “also recorded” stand apart in the source; their conditions may differ.

Experiments:
α-L-AFase [1] = assay: Effect of metal ions and reagents on α-L-AFase activity; format: biochemical, Aureobasidium pullulans
Protocol: (§1) Enzyme assay. αL-arabinofuranosidase (α-L-AFase) activity was assayed in a reaction mixture (1 ml) containing 1 mM p-nitrophenyl α-L-arabinofuranoside (pNPαAF), 50 mM acetate buffer, pH 4.5 and appropriately diluted enzyme solution. After incubation at 50° C. for 30 min, the reaction was stopped by adding ice-cold 0.5M Na2 CO3 (1 ml) and the color formed was measured at 405 nm. One unit (U) of α-L-AFase activity was defined as the amount of enzyme that liberates 1 μmol p-nitrophenol (pNP) per min in the reaction mixture under these assay conditions.
Effect of metal ions and reagents.

[2] = target: α-L-AFase from P. capsulatum; details: Filho et al.; read-out: Ki (competitive inhibition); cited from earlier work
[3] = test system: Aureobasidium pullulans Y-21792; assay: Effect of carbon source on growth and α-L-arabinofuranosidase production in shake flasks; format: cell-based; details: for Growth (A660) / L-arabinosidase (mU/ml culture) Supernatant / L-arabinosidase (mU/ml culture) Whole broth / time of maximum enzyme production, Supernatant (figure in parenthesis) / time of maximum enzyme production, Whole broth (figure in parenthesis): carbon source 1% w/v, 28° C.; for Growth (A660): 96 h, averages of duplicates; for L-arabinosidase (mU/ml culture) Supernatant / L-arabinosidase (mU/ml culture) Whole broth: maximum in time course; for time of maximum enzyme production, Supernatant (figure in parenthesis) / time of maximum enzyme production, Whole broth (figure in parenthesis): time course over 96 h; for share of the whole culture broth α-L-AFase activity that is extracellular: cultures grown on the named carbon source
Protocol: Organism, cultivation and enzyme production. The color variant strain NRRL Y-21792 of A. pullulans (also available as NRRL Y-12974) was obtained from the ARS culture collection, NCAUR, Peoria, Ill. The medium used for seed culture and enzyme production was CCY medium (Slininger et al., 1982, Biotechnol. Bioeng., 23:371-384) with the following composition (g/L): 10 ml of solution A, 10 ml of solution B. 100 ml of solution C, 10 g of yeast extract and 10 g of oat spelt xylan. Solution A was a trace mineral solution having the following ingredients (per L): 1.1 g of CaO, 0.4 g of ZnO, 5.4 g of FeCl3.6 H2 O, 0.25 g of CuSO4. 5H2 O, 0.24 g of CoCl2. 6H2 O, 0.06 g of H3 BO3 and 13 ml of concentrated HCl. Solution B (per L) contained 10.1 g of MgO and 45 ml of concentrated HCl. Solution C (per L) contained 64 g of urea, 12 g of KH2 PO4 and 1.8 g of Na2 HPO4. Oat spelt xylan was sterilized separately. The pH of the medium was adjusted to 5.0 with 1M HCl before inoculation. A 125-ml Erlenmeyer flask containing 50 ml of medium with oat spelt xylan (1%, w/v) as a carbon source was inoculated with a loopful of cells taken from a stock slant and incubated at 28° C. on a rotary shaker (200 rpm) for 2 days. The shake flasks (250-ml Erlenmeyer flask containing 100 ml medium with 1% oat spelt xylan) were inoculated with 2 ml of this culture and cultivated on a rotary shaker (200 rpm) at 28° C. After 3 days, the cells were removed from the culture broth by centrifugation (18,000×g, 20 min). The resulting supernatant solution was used as the crude enzyme preparation.
Medium and enzyme production. The media used for seed culture and enzyme production were prepared as described in Example 1 with the exception of the particular carbon source. The shake flasks (125-ml Erlenmeyer flask containing 50 ml medium) were inoculated with 2 ml of seed culture (prepared using L-arabinose as carbon source) and cultivated on a rotary shaker (200 rpm) at 28° C. for 4 days. At intervals, ~2 ml of the whole culture broth were withdrawn, and the cells and unutilized insoluble substrates were removed from the culture broth by centrifugation (18,000×g, 20 min).
Analytical procedures. α-L-AFase activity was assayed as described in Example 1. Cell growth was monitored by measuring optical density of the culture broth at 660 nm (A660).

[4] = test system: α-L-AFase from A. nidulans; details: L-Arabinose at 80 mM; Fernandez-Espinar et al.; cited from earlier work
α-L-AFase [5] = assay: Effect of L-arabinose and other sugars on α-L-AFase activity; format: biochemical, Aureobasidium pullulans
Protocol: as §1
Effect of L-arabinose and other sugars.

purified α-L-AFase [6] = assay: Substrate specificity and kinetic analysis with aryl-glycosides; format: biochemical, Aureobasidium pullulans; details: for Relative initial rate of hydrolysis (percentage of that obtained with pNPαAF): substrate 4 mM, enzyme 28 mU/ml, 15 min reaction
Protocol: as §1
(§2) Other methods. Protein was estimated by the method of Lowry et al. (1951, J. Biol. Chem., 193:265-275) with bovine serum albumin as the standard. Protein in the column effluents was monitored by measuring absorbance at 280 nm. Sodium dodecyl sulfate-polyacrylamide gel electrophoresis (SDS-PAGE) was performed on a 7.5% gel according to Laemmli (1970, Nature, 227:680-685). The molecular weight of the native enzyme was determined by gel filtration on Bio-Gel A-0.5m as described by Andrews (1965, Biochem. J., 91:595-606), using apoferritin (MW 443,000), sweet potato β-amylase (200,000), yeast alcohol dehydrogenase (150,000), bovine serum albumin (66,000) and ovalbumin (45,000) as standard proteins. […] The Km and Vmax values were determined by the double-reciprocal plot method of Lineweaver-Burk (1934, J. Am. Chem. Soc., 56:658-666) using the KINET software program. Arabinose analysis was performed by HPLC (Spectra-Physics, San Jose, Calif.) using an ion moderated partition chromatography column (Aminex HPX-87C). The column was maintained at 85° C., and the sugars were eluted with Milli-Q water at a flow rate of 0.6 ml/min. Peaks were detected by refractive index, and identified and quantified by comparison to retention times of authentic standards (L-arabinose, D-glucose, D-xylose).
Substrate specificity and kinetic analysis. Relative initial rates of hydrolysis of p-nitrophenyl-α-L-arabinopyranoside, p-nitrophenyl-β-D-glucoside, p-nitrophenyl-β-D-glucoside, p-nitrophenyl-β-D-xyloside, p-nitrophenyl-β-D-cellobioside and p-nitrophenyl-β-D-galactoside (4 mM each) by the purified α-L-AFase (28 mU/ml) were 3.4, 2.3, 1.7, 3.1, 0.0, and 0.1%, respectively (expressed as a percentage of that obtained with pNPαAF at pH 4.5 and 75° C., 15 min reaction). The rate dependence of the enzymatic reaction on the pNPαAF concentration at pH 4.5 and 75° C. followed Michaelis-Menten kinetics.

purified α-L-AFase [7] = assay: Hydrolysis of arabinan, debranched arabinan and arabinoxylans (arabinose by HPLC); format: biochemical, Aureobasidium pullulans
Protocol: FIG. 4. Time course of arabinan (1%, w/v) hydrolysis by purified α-L-arabinofuranosidase (0.445 U/ml) from A. pullulans Y-21792 at pH 4.5 and 50° C.
as §2, with “Arabinose analysis was performed by HPLC (Spectra-Physics, San Jose, Calif.) using an ion moderated partition chromatography column (Aminex HPX-87C). The column was maintained at 85° C., and the sugars were eluted with Milli-Q water at a flow rate of 0.6 ml/min.” left out
Hydrolysis of arabinan, debranched arabinan and arabinoxylans. […] Only arabinose was detected in the reaction product. […]

For `O[C@H](CS)[C@H](O)CS` (racemic) [DTT, dithiothreitol, reference compound], the “effect on enzyme activity” value (α-L-AFase [1]; 10 mM) was “not affected; also recorded: not inhibited”.
In the case of `[Ca+2]` [Ca^2+], the “requirement of metal ion for activity” value (α-L-AFase [1]; 5 mM) is reported as “did not require”.
With `[Co+2]` [Co^2+] the “requirement of metal ion for activity” value (α-L-AFase [1]; 0.5 mM) was “did not require”.
In the case of `O=C[C@H](O)[C@@H](O)[C@@H](O)CO` [L-arabinose], the Ki [2] is listed as 16.4 mM, the “Growth (A660)” value [3] is listed as 7.6 and the “L-arabinosidase (mU/ml culture) Supernatant” value [3] is listed as 199 mU/ml culture. For the same compound, the “L-arabinosidase (mU/ml culture) Whole broth” value [3] was 500 mU/ml culture, the “time of maximum enzyme production, Supernatant (figure in parenthesis)” value (from here on “time … Supernatant (figure in parenthesis)”) [3] was 48 and the “time of maximum enzyme production, Whole broth (figure in parenthesis)” value (“time … Whole broth (figure in parenthesis)” for short) [3] was 58. For the same compound, the “share of the whole culture broth α-L-AFase activity that is extracellular” value (“share” for short) [3] was 40%, the “reduction of the hydrolytic activity” value [4] was 40% and the “inhibition of α-L-AFase activity” value (α-L-AFase [5]; up to 1.2M (21.6%)) was “substantially no inhibition; also recorded: not at all inhibitory; also recorded: not inhibited”.
In the case of `OC[C@H](O)C(O)[C@@H](O)CO` [L-arabitol], the “Growth (A660)” value [3] is reported as 7.2, the “L-arabinosidase (mU/ml culture) Supernatant” value [3] is reported as 95 mU/ml culture and the “L-arabinosidase (mU/ml culture) Whole broth” value [3] is reported as 441 mU/ml culture. The “time … Supernatant (figure in parenthesis)” value [3] was 48, the “time … Whole broth (figure in parenthesis)” value [3] was 34 and the “share” value [3] was 22%. The “inhibition of α-L-AFase activity” value (α-L-AFase [5]; each at 0.11M) was “did not inhibit”.
With `[Mg+2]` [Mg^2+] the “requirement of metal ion for activity” value (α-L-AFase [1]; 5 mM) was “did not require”.
With `[Mn+2]` [Mn^2+] the “requirement of metal ion for activity” value (α-L-AFase [1]; 5 mM) was “did not require”.
For `O=C[C@H](O)[C@@H](O)[C@H](O)CO` [Xylose], the “Growth (A660)” value [3] was 8.0, the “L-arabinosidase (mU/ml culture) Supernatant” value [3] was 88 mU/ml culture and the “L-arabinosidase (mU/ml culture) Whole broth” value [3] was 129 mU/ml culture. The “time … Supernatant (figure in parenthesis)” value [3] was 48, the “time … Whole broth (figure in parenthesis)” value [3] was 48 and the “share” value [3] was “About 70%”. For the same compound, the “inhibition of α-L-AFase activity” value (α-L-AFase [5]; each at 0.11M) was “did not inhibit”.
With `O=C[C@H](O)[C@@H](O)[C@@H](O)[C@H](O)CO` [galactose] the “inhibition of α-L-AFase activity” value (α-L-AFase [5]; each at 0.11M) was “did not inhibit”.
For `O=C[C@H](O)[C@@H](O)[C@H](O)[C@H](O)CO` [glucose], the “inhibition of α-L-AFase activity” value (α-L-AFase [5]; each at 0.11M) was “did not inhibit”.
In the case of `O=C[C@@H](O)[C@@H](O)[C@H](O)[C@H](O)CO` [mannose], the “inhibition of α-L-AFase activity” value (α-L-AFase [5]; each at 0.11M) is reported as “did not inhibit”.
With `O=[N+]([O-])c1ccc(O[C@@H]2OC[C@H](O)[C@H](O)[C@H]2O)cc1` [p-nitrophenyl-α-L-arabinopyranoside] the “Relative initial rate of hydrolysis (percentage of that obtained with pNPαAF)” value (purified α-L-AFase [6]; pH 4.5 and 75° C.) was 3.4%.
For `O=[N+]([O-])c1ccc(O[C@@H]2O[C@H](CO)[C@@H](O[C@@H]3O[C@H](CO)[C@@H](O)[C@H](O)[C@H]3O)[C@H](O)[C@H]2O)cc1` [p-nitrophenyl-β-D-cellobioside], the “Relative initial rate of hydrolysis (percentage of that obtained with pNPαAF)” value (purified α-L-AFase [6]; pH 4.5 and 75° C.) was 0.0%.
With `O=[N+]([O-])c1ccc(O[C@@H]2O[C@H](CO)[C@H](O)[C@H](O)[C@H]2O)cc1` [p-nitrophenyl-β-D-galactoside] the “Relative initial rate of hydrolysis (percentage of that obtained with pNPαAF)” value (purified α-L-AFase [6]; pH 4.5 and 75° C.) was 0.1%.
In the case of `O=[N+]([O-])c1ccc(O[C@@H]2O[C@H](CO)[C@@H](O)[C@H](O)[C@H]2O)cc1` [p-nitrophenyl-β-D-glucoside], the “Relative initial rate of hydrolysis (percentage of that obtained with pNPαAF)” value (purified α-L-AFase [6]; pH 4.5 and 75° C.) is reported as 2.3% and 1.7%.
For `O=[N+]([O-])c1ccc(O[C@@H]2OC[C@@H](O)[C@H](O)[C@H]2O)cc1` [p-nitrophenyl-β-D-xyloside], the “Relative initial rate of hydrolysis (percentage of that obtained with pNPαAF)” value (purified α-L-AFase [6]; pH 4.5 and 75° C.) was 3.1%.
With `O=C(O)c1cc[c]([Hg][Cl])cc1` [pCMB, p-chloromercuribenzoic acid, reference compound] the “effect on enzyme activity” value (α-L-AFase [1]; 0.2 mM) was “not affected; also recorded: not inhibited”.
In the case of `O=[N+]([O-])c1ccc(O[C@@H]2O[C@@H](CO)[C@H](O)[C@H]2O)cc1` [pNPαAF, p-nitrophenyl α-L-arabinofuranoside], the Vmax (purified α-L-AFase [6]; pH 4.5 and 75° C., reciprocal plot) is reported as 6.99 μmol pNP. min^-1.mg^-1 protein, the Km (purified α-L-AFase [6]; pH 4.5 and 75° C., reciprocal plot, read-out: apparent Km) is reported as 260 µM and the Substrate inhibition (purified α-L-AFase [6]; tested up to 8 mM) is reported as “not observed; also recorded: not inhibited”.
For `OC[C@@H](O)[C@H](O)[C@@H](O)CO` [xylitol], the “Growth (A660)” value [3] was 9.1, the “L-arabinosidase (mU/ml culture) Supernatant” value [3] was 47 mU/ml culture and the “L-arabinosidase (mU/ml culture) Whole broth” value [3] was 94 mU/ml culture. The “time … Supernatant (figure in parenthesis)” value [3] was 58, the “time … Whole broth (figure in parenthesis)” value [3] was 48 and the “inhibition of α-L-AFase activity” value (α-L-AFase [5]; each at 0.11M) was “did not inhibit”.
In the case of arabinogalactan, the “Growth (A660)” value [3] is reported as 3.1, the “L-arabinosidase (mU/ml culture) Supernatant” value [3] is reported as 9 mU/ml culture and the “L-arabinosidase (mU/ml culture) Whole broth” value [3] is reported as 45 mU/ml culture. For the same compound, the “time … Supernatant (figure in parenthesis)” value [3] was 34, the “time … Whole broth (figure in parenthesis)” value [3] was 34 and the “arabinose detected by HPLC as product of hydrolysis” value (purified α-L-AFase [7]) was “no arabinose was detected”.
